From article PMC4884984, “Identification of approved and investigational drugs that inhibit hypoxia-inducible factor-1 signaling” (Oncotarget, 2016)
“Also recorded” adds a separate entry of the source. Where two headings read alike, the source gives them in different places. Blank lines part the entries; values can stand above or below the compound they belong to.

Legend:
Type in all cases: cell-based, human
HIF-1α–NanoLuc = HIF-1α–NanoLuc reporter gene assay (qHTS primary and confirmatory screens)
HRE–bla ME-180 cells = assay: Viability (BLA): CellTiter-Glo counter screen in HRE–bla cells; conditions: Table S7, 1% O2, 18 h
[1] = system: hypoxia response element-beta-lactamase (HRE–bla); assay: HRE-bla reporter gene assay in ME-180 cells; conditions: for Emax / IC50: Homo sapiens, ME-180; for Emax: read-out: HRE–bla confirmatory Efficacy; for IC50: read-out: HRE–bla confirmatory IC50; for Effect on HRE–bla transcriptional activity, in words: ME-180 cells
[2] = Homo sapiens, Table S1, primary screen, hypoxia 1% O2, 18 h, read-out: IC50 (primary screen, HIF-1α–NanoLuc assay)
[3] = Homo sapiens, Table S1, primary screen, read-out: Efficacy (primary screen, HIF-1α–NanoLuc assay)
[4] = Homo sapiens, 18 h, read-out: IC50 (primary screen, HIF-1α–NanoLuc assay)
[5] = Homo sapiens, read-out: Efficacy (primary screen, HIF-1α–NanoLuc assay)
[6] = Table S2, validation, read-out: Pathway inhibitors (validation) HIF-1α–NanoLuc Activity IC50
[7] = Homo sapiens, Table S2, validation, read-out: Pathway inhibitors (validation) HIF-1α–NanoLuc Activity Efficacy
[8] = Homo sapiens, Table S2, validation, read-out: Pathway inhibitors (validation) HIF-1α–NanoLuc Activity IC50

SMILES: COc1cccc2c1C(=O)c1c(O)c3c(c(O)c1C2=O)C[C@@](O)(C(=O)CO)C[C@@H]3O[C@H]1C[C@H](N2CCO[C@H](OC)C2)[C@H](O)[C@H](C)O1 [Nemorubicin]
IC50 (HIF-1α–NanoLuc; [4]): 0.08 µM | Emax (HIF-1α–NanoLuc; [5]): 111%

SMILES: COc1cc([C@@H]2c3cc4c(cc3[C@H](O)[C@H]3COC(=O)[C@@H]23)OCO4)cc(OC)c1OC [Picropodphyllin]
Pathway inhibitors (primary screen) HIF-1α–NanoLuc Activity Efficacy (HIF-1α–NanoLuc; Table S2, primary screen): 159% | IC50 (HIF-1α–NanoLuc; Table S2, primary screen, read-out: Pathway inhibitors (primary screen) HIF-1α–NanoLuc Activity IC50): 0.53 µM | Pathway inhibitors (validation) HIF-1α–NanoLuc Activity Efficacy (HIF-1α–NanoLuc; Table S2, validation): 159% | IC50 (HIF-1α–NanoLuc; [6]): 0.53 µM

SMILES: COc1cccc2c1C(=O)c1c(O)c3c(c(O)c1C2=O)C[C@@](O)(C(=O)CO)C[C@@H]3O[C@H]1C[C@H](N)[C@H](O[C@@H]2CCCCO2)[C@H](C)O1 [Pirarubicin]
IC50 (HIF-1α–NanoLuc; [2]): 11.9 µM | Emax (HIF-1α–NanoLuc; [3]): 97%

SMILES: C=C(C)[C@H]1Cc2c(ccc3c2O[C@@H]2COc4cc(OC)c(OC)cc4[C@@H]2C3=O)O1 [Rotenone]
IC50 (HIF-1α–NanoLuc; [4]): 0.19 µM | Emax (HIF-1α–NanoLuc; [5]): 91%

SMILES: Cc1cc(C)c(/C=C2\C(=O)Nc3ccccc32)[nH]1 [SU-5416]
Viability (BLA) confirmatory IC50 (HRE–bla ME-180 cells): Inactive | Emax ([1]; Table S7, confirmatory screen): 111 ± 12% | IC50 ([1]; Table S7, confirmatory screen): 12.8 ± 0.84 µM

SMILES: Cc1ccc(C(=O)Nc2ccc(S(=O)(=O)O)c3cc(S(=O)(=O)O)cc(S(=O)(=O)O)c23)cc1NC(=O)c1cccc(NC(=O)Nc2cccc(C(=O)Nc3cc(C(=O)Nc4ccc(S(=O)(=O)O)c5cc(S(=O)(=O)O)cc(S(=O)(=O)O)c45)ccc3C)c2)c1 [Suramin]
Emax (HIF-1α–NanoLuc; [7]): 41 ± 7% | IC50 (HIF-1α–NanoLuc; [8]): 24.5 ± 3.13 µM

SMILES: O=C(CCCCCCC(=O)Nc1ccccc1)NO [Vorinostat]
Emax (HIF-1α–NanoLuc; [3]): 51%

SMILES: OCc1ccc(-c2nn(Cc3ccccc3)c3ccccc23)o1 [YC-1]
Effect on HIF-1α–NanoLuc level / luciferase activity, in words (HIF-1α–NanoLuc; HCT116 reporter cells): decrease in luciferase expression in a concentration response manner

SMILES: CC(C)C[C@H](NC(=O)[C@H](Cc1ccccc1)NC(=O)c1cnccn1)B(O)O [bortezomib]
Effect on HRE–bla transcriptional activity, in words [1]: inhibited the transcriptional activity of HRE–bla | Effect on HIF-1α–NanoLuc level / luciferase activity, in words (HIF-1α–NanoLuc; HCT116 reporter cells): resulted in protein accumulation and increased luciferase activity; also recorded: potently induced accumulation of HIF-1α–NanoLuc proteins

SMILES: CC(C)C[C@H](NC(=O)[C@H](CCc1ccccc1)NC(=O)CN1CCOCC1)C(=O)N[C@@H](Cc1ccccc1)C(=O)N[C@@H](CC(C)C)C(=O)[C@@]1(C)CO1 [carfilzomib]
Effect on HRE–bla transcriptional activity, in words [1]: inhibited the transcriptional activity of HRE–bla | Effect on HIF-1α–NanoLuc level / luciferase activity, in words (HIF-1α–NanoLuc; HCT116 reporter cells): potently induced accumulation of HIF-1α–NanoLuc proteins

Now from value to compound, other results behind:

IC50 (HIF-1α–NanoLuc; [2]): 9.44 µM
SMILES: COC(=O)C1=C(C)NC(C)=C(C(=O)OCCN2CCN(C(c3ccccc3)c3ccccc3)CC2)C1c1cccc([N+](=O)[O-])c1 (centres unmarked) [Manidipine]
Emax (HIF-1α–NanoLuc; [3]): 86%

HRE–bla confirmatory IC50 ([1]; Table S7, confirmatory screen): Inactive
SMILES: COc1ccccc1N1CCN(CC(O)COc2cccc3ccccc23)CC1 (centres unmarked) [Naftopidil]
Viability (BLA) confirmatory IC50 (HRE–bla ME-180 cells): Inactive

IC50 (HIF-1α–NanoLuc; [2]): 21.1 µM
SMILES: Cc1c(O)cccc1C(=O)N[C@@H](CSc1ccccc1)[C@H](O)CN1C[C@H]2CCCC[C@H]2C[C@H]1C(=O)NC(C)(C)C [Nelfinavir]
Emax (HIF-1α–NanoLuc; [3]): 120%

IC50 (HIF-1α–NanoLuc; [2]): 15 µM
SMILES: COCCOC(=O)C1=C(C)NC(C)=C(C(=O)OC(C)C)C1c1cccc([N+](=O)[O-])c1 (centres unmarked) [Nimodipine]
Emax (HIF-1α–NanoLuc; [3]): 132%

IC50 (HIF-1α–NanoLuc; [2]): 15 µM
SMILES: CCOC(=O)C1=C(C)NC(C)=C(C(=O)OC)C1c1cccc([N+](=O)[O-])c1 (centres unmarked) [Nitrendipine]
Emax (HIF-1α–NanoLuc; [3]): 157%

IC50 (HIF-1α–NanoLuc; Homo sapiens, HCT-116, HCT116 reporter cells, hypoxia, read-out: HIF-1α–NanoLuc IC50): 6.23 ± 1.64 µM
SMILES: C[C@]1(O)C[C@@H](c2nc(-c3ccc4ccc(-c5ccccc5)nc4c3)c3c(N)nccn32)C1 [OSI-906]

IC50 ([1]; Table S7, confirmatory screen): 12.8 ± 0.84 µM
SMILES: O=c1c(O)c(-c2ccc(O)c(O)c2)oc2cc(O)cc(O)c12 [Quercetine]
Viability (BLA) confirmatory IC50 (HRE–bla ME-180 cells): Inactive | Emax ([1]; Table S7, confirmatory screen): 84 ± 10%

IC50 (HIF-1α–NanoLuc; [6]): 1.41 ± 0.23 µM
SMILES: N#Cc1c(Oc2ccc(F)c(NC(=O)Cc3cccc(C(F)(F)F)c3)c2)ccc2nc(NC(=O)C3CC3)sc12 [TAK-632]
Pathway inhibitors (validation) HIF-1α–NanoLuc Activity Efficacy (HIF-1α–NanoLuc; Table S2, validation): 85 ± 2%

IC50 (HIF-1α–NanoLuc; [2]): 1.19 µM
SMILES: COC(=O)C1=C(C)NC(C)=C(C(=O)OCCc2ccc(N3CCN(C(c4ccccc4)c4ccccc4)CC3)cc2)C1c1cccc([N+](=O)[O-])c1 (centres unmarked) [Vatanidipine]
Emax (HIF-1α–NanoLuc; [3]): 103%

IC50 (HIF-1α–NanoLuc; [8]): 9.57 ± 5.6 µM
SMILES: CC[C@@H]1C(=O)N(C)c2cnc(Nc3ccc(C(=O)N[C@H]4CC[C@H](N5CCN(CC6CC6)CC5)CC4)cc3OC)nc2N1C(C)C [Volasertib]
Emax (HIF-1α–NanoLuc; [7]): 78 ± 14%
